Values quoted from earlier work in PMC8386747, “Structure–activity relationship, in vitro and in vivo evaluation of novel dienyl sulphonyl fluorides as selective BuChE inhibitors for the treatment of Alzheimer's disease” (Journal of Enzyme Inhibition and Medicinal Chemistry, 2021).

Key:
BuChE = tested on: BuChE; parameters: method as in PMID 31136894; details: cited from earlier work
GSK-3β = tested on: GSK-3β; parameters: method as in PMID 28749667, PMID 26696252; details: read-out: GSK-3μ IC50; cited from earlier work
BACE-1 = tested on: BACE-1; parameters: method as in PMID 28749667, PMID 26696252; details: cited from earlier work

In the case of O=C1c2cc(NS(=O)(=O)c3ccccc3OC(F)(F)F)ccc2NC2C3Nc4ccccc4C3CCN12 (stereo not drawn) [Rutaecarpine-6n], the IC50 (BuChE) is given as 3600 nM.
For COc1cc(/C=C/C(O)=C/C(=O)/C=C/c2ccc(OCc3ccccc3)cc2)ccc1O [curcumin derivative], the IC50 (GSK-3β) is given as 900 nM and the IC50 (BACE-1) is given as 970 nM.
